Assay results: patent US20180265867A1, “NUCLEIC ACID MOLECULES WITH ENHANCED ACTIVITY” (priority 2015, published 2018)
{Cy3} = Cy3 fluorescent dye label; d = 2'-deoxy (DNA); r = 2'-OH (RNA)

How the values were obtained:
GAPDH = GAPDH gene knockdown in MG63 cells by RT-PCR; assay type: cell-based, human; conditions: MG63 cells, carrier-free transfection, 50 nM, 24 h
Protocol: At 70% confluency, a day prior to transfection, the cells were seeded at a density of 35 000 cells in a 24-well cell culture plate to achieve 60-80% confluence at the day of transfection. Cell penetrating siRNAs (cpRNAs) of different lengths were transfected at 50 nM concentrations with Magnet Assisted Transfection (MATra-si) reagent for siRNAs (IBA GmbH, Göttingen, Germany) according to the manufacturers' protocols. Briefly, the siRNA was mixed with MATra-si reagent composed of supermagnetic ironoxide nanoparticles and incubated for 20 min. A complex was formed which was added to the cells to be transfected. A strong magnetic force was applied beneath the cells for 15 min. This forced the complex to be drawn into the cells by the magnetic field, and as a result the siRNA was delivered directly into the cytosol. For carrier free transfection experiments, cpRNAs were simply added to cells lines MG63, HOB, HCT116, fibroblasts and keratinocytes at 50 nM concentrations. Cells were also transfected with negative control siRNA (scrambled sequence) and cells left untreated were taken as controls. Each transfection was performed in triplicate. Post transfection, cells were incubated for 24 hours.
For the experiments involving lysosomotropic agent chloroquine (CQ), CQ was first neutralized to pH 7.4 using 1 M NaOH prior to use. MG63 cells were transfected with dT2, dT5, dT8, (dT5)2, as(dT5), and bl(dT5) siRNA in presence or absence of 100 μM CQ or using MATra-si and incubated for 24 h. Similar experiments were performed for other cpRNAs namely, dA5, dT5, dG5, (dT5)2, rA5 and dC5. For the control experiment, cells were either left untreated or transfected with negative control siRNA (scrambled sequence). Each transfection experiment was performed in triplicate.
After performing transfection experiments for 24 h, 48 h and 72 h respectively, total RNA was isolated from cells by adding 500 μl of lysis buffer (Qiagen, Germany), followed by homogenization of cell lysates using QIAshredder (Qiagen, Germany). RNA was extracted from cell lysates by RNeasy Mini Kit (Qiagen, Germany). All RNA samples were treated with DNase using TURBO-DNAfree (Ambion, USA). Agilent 2100 BioAnalyzer (Agilent Technologies, Palo Alto, Calif.) was used to confirm high quality of all RNA samples, which reports an RNA Integrity Number (RIN) that takes into account the entire electrophoretic RNA trace produced in the analysis. A RIN of greater than or equal to seven indicates the RNA is suitable for high stringency applications.
cDNA synthesis was performed in triplicate using total RNA reverse transcribed using High Capacity cDNA reverse transcription kit (Applied Biosystems, USA), with non-template control added to ensure a lack of signal in assay background. Reactions were incubated on a 96-well Applied Biosystems 9800 Fast Thermal Cycler PCR System at 37° C. for 60 min followed by 95° C. for 5 min. The real-time PCR reactions were carried out with 10 μl of 2×TaqMan® Universal PCR Master Mix, no AmpErase® UNG (Applied Biosystems, USA), 9 μl diluted cDNA, and 1 μl of TaqMan gene specific assay mix in a 20 μl final reaction volume. Reference gene beta-actin (ACTB) (Applied Biosystems, USA) was selected as control for normalization of TaqMan data. The assay included a no-template control, a standard curve of five serial dilution points (in steps of 3-fold) of cDNA mixture. Probes specific for IFN-α (Hs01022060_m1), IFN-β (Hs01077958_s1), IFN-γ (Hs00985251_m1), ACTB(Hs01060665_g1) and GAPDH (Hs02758991_g1) were purchased from Applied Biosystems. The amplification was carried out using the 7500 Fast Real-Time PCR System (Applied Biosystems, USA) using a 40-cycle program. The 7500 software automatically calculates raw Ct (cycle threshold) values. Data from samples with a Ct value equal to or below 35 were further analyzed. […]

[1] = system: MG63, HOB, HCT116, HEK293 and MC3T3 cells; experiment: Flow cytometry cellular uptake of Cy3-cpRNA in different cells; assay type: cell-based, human; mouse; conditions: 50 nM, 24 h at 37° C., carrier-free
Protocol: To determine the amount of cellular uptake of cpRNA by flow cytometry, Cy3 labeled cpRNA (Table 3) was used for transfection experiments using different types of cells (MG63, HOB, HCT116, HEK293 and MC3T3). Cells were seeded at a density of 1×10^5 cells per well and cultured for 24 hours. Thereafter, cells were transfected with 50 nM Cy3-cpRNA, with control wells left untreated. Post-transfection, cells were incubated for further 24 h at 37° C., trypsinised and washed with PBS containing 2 mM EDTA and 0.5% human serum albumin. The cells were then suspended in PBS and subjected to fluorescence analysis on a FACSCanto II (BD Biosciences) BioVis platform, scilife laboratory. The images were analyzed using FlowJo software (version 7.6; TreeStar, Ashland, Oreg.).

MG63 cells [2] = experiment: Flow cytometry uptake kinetics and ODN2006 blocking in MG63 cells; assay type: cell-based, human; conditions: MG63 cells, 50 nM, 37° C.
Protocol: To determine cpRNA cellular uptake kinetics, FACS experiments were repeated as mentioned above using MG63 cells, where Cy3-cpRNA was treated for different time points. Briefly, Cy3-cpRNA (50 nM) was added to cells, followed by incubation for 0.5 h, 1 h, 1.5 h, 2 h, 3 h and 4 h respectively. The cells were subsequently trypsinised and analyzed by FACS as mentioned above.
To perform […] blocking studies, seeded MG63 cells were incubated with 600 nM 3′-FITC labeled ODN2006 for 1 h, followed by addition of 50 nM cpRNA. Cells were incubated for additional 0.5 h, 1 h, 1.5 h, 2 h, 3 h and 4 h respectively, trypsinised and analyzed by FACS analysis as mentioned above.
To verify if the uptake mechanism of cpRNA was analogous to viral RNA and the RNA mimic polyriboinosinic:polyribocytidylic acid or poly(I:C), blocking studies were performed using the Btype single-stranded DNA sequence ODN2006 which share a common uptake receptor. This synthetic phosphorothioate modified oligo, though initially identified as a TLR9 agonist, blocks cellular uptake of viral RNA and poly(I:C) by preferentially competing with the common RNA uptake receptor. Blocking experiment were performed by pre-incubating the cells with FITC labeled ODN2006 for 1 h, followed by the addition of Cy3-labeled cpRNA. The blocking studies and cellular uptake was monitored using FACS analysis at different time points for up to 4 h. As a control experiment, the uptake kinetics was performed in the absence of FITC labeled ODN2006. […] These experiments verified the involvement of an alternate uptake mechanism and indicated the presence of a ubiquitous RNA capture receptor that required ˜1 h of maturation time before the endocytosis process could initiate.

MG63 cells [3] = conditions: no own experiment described; cited from earlier work
[4] = Thermal denaturation (Tm) of siRNA duplexes; assay type: physicochemical
Protocol: Thermal denaturation studies of siRNA was carried out in phosphate buffer, pH 7.0, containing 140 mM KCl. UV absorbance was monitored at 260 nm in the temperature range from 40 to 95° C. using a Lambda 35 UV-Vis spectrophotometer equipped with a Peltier temperature programmer with a heating rate of 0.5° C./min. Samples (1 μM RNA) were denatured at 90° C. for 3 min followed by slow cooling to 27° C. prior to the measurements. Tm values were obtained from the maxima of the first derivatives of the melting curves. All Tm values given are the averages of three independent sets of experiments (±0.3° C. error range).

MG63 and HOB cells = experiment: Cell proliferation / toxicity by MTS assay; assay type: cell-based, human; conditions: 50 and 100 nM, 24 h post transfection
Protocol: Cell proliferation was assessed by MTS (3-(4,5-dimethylthiazol-2-yl)-5-(3-carboxymethoxyphenyl)-2-(4-sulfophenyl)-2H-tetrazolium, inner salt) reagent assay: MG63 cells were seeded at a density of 35 000 cells in 24-well culture plates, and cultured for 24 hours as mentioned above. Cells were transfected with 50 nM or 100 nM concentrations of cpRNA and negative control siRNAs with or without MATra-si, while control wells were left untreated. Each transfection experiment was performed in triplicate. Post-transfection, cells were incubated for 24 hours at 37° C. The viable cells were evaluated by MTS assay, using CellTiter 96®AQueousOne Solution Cell Proliferation Assay (Promega, USA) according to the manufacturer's protocol. The enzymatic reduction in MTS to formazan was quantified by an ELISA plate reader (Thermo Scientific) at 490 nm.
Thus, the role of siRNA topography on immune activation and cellular toxicity was investigated because increased RNA length has been reported to cause toxicity with increased interferon (IFN)-β expression. toxicity studies were performed using the MTS assay with two concentrations of GAPDH siRNA (50 and 100 nM) with different overhang lengths (dT2, dT5, and dT8) in MG63 and HOB cells and compared it with the scrambled siRNA sequence (FIG. 5).

Substance	GAPDH gene knockdown (GAPDH)	cellular uptake by flow cytometry ([1]; listed as Cy3-labeled cpRNA)	cellular uptake by flow cytometry ([1]; listed as Cy3 labeled cpRNA)	time after which cellular uptake was initiated (MG63 cells [2])	time in which uptake finished after initiation (MG63 cells [2])	uptake kinetics (MG63 cells [3])	Tm ([4]; 7.5 mM phosphate buffer pH 7.0 containing 140 mM KCl, 1 μM strands, 40-95° C.)	Δ Tm ([4]; Tm relative to canonical siRNA (dT2))	drop in Tm ([4]; as compared to canonical siRNA)	cytotoxicity (MTS assay) (MG63 and HOB cells)
Cy3 cpRNA: GAPDH cpRNA with Cy3 at 5′-end of sense strand (SEQ ID NO: 12, dT5), antisense SEQ ID NO: 2 (sense CCGAGCCACAUCGCUCAGATTTTT; antisense UCUGAGCGAUGUGGCUCGGTT; sense: sugars from the 5' end r19 d5, 5' {Cy3}, backbone not given here; antisense: sugars from the 5' end r19 d2, backbone not given here)	80%	near quantitative cellular uptake	quantitatively taken up by all the cells	1 h	≤ 2 h	–	–	–	–	–
polyriboinosinic:polyribocytidylic acid [poly(I:C)]	–	–	–	–	–	≤ 5 min	–	–	–	–
dT8: GAPDH siRNA, sense SEQ ID NO: 4 with dT8 3′-overhang, antisense SEQ ID NO: 2 with dT2 (sense CCGAGCCACAUCGCUCAGATTTTTTTT; antisense UCUGAGCGAUGUGGCUCGGTT; sense: sugars from the 5' end r19 d8, backbone not given here; antisense: sugars from the 5' end r19 d2, backbone not given here)	50%	–	–	–	–	–	79.8 °C	−1.4 °C	1.5 °C	do not impose toxicity
